± gives the expanded uncertainty stated by the source.

Three molecules from the NIST ThermoML archive (doi:10.1021/je900342a) can be followed below.

The conditions of series [1]: Crystal; DTA.
The nature of series [2]: Molar enthalpy of transition or fusion. To be noted: Crystal; DSC.

With `CCCCCCCCCCCCCC(=O)O` [tetradecanoic acid], in series [1], the Normal melting temperature is 53.1 ± 0.5 °C. In addition, the “Molar enthalpy of transition or fusion” value in series [2] was found to be 10.9 ± 0.287 kcal/mol.

Turning to `CCCCCCCCCCCCCCCC(=O)OCC(COC(=O)CCCCCCCCCCCCCCC)OC(=O)CCCCCCCCCCCCCCC` [1,2,3-propanetriyl tri(hexadecanoate)], in series [1], the Normal melting temperature came out at 67.4 ± 0.5 °C. Further, in series [2], the “Molar enthalpy of transition or fusion” value was 38.9 ± 1 kcal/mol.

As for `CC(C)Cc1ccc(C(C)C(=O)O)cc1` (stereo not given) [ibuprofen], in series [1], the Normal melting temperature came out at 74.5 ± 0.5 °C.
